Assay results as given in PubChem BioAssay (NCI).
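Briefly, cells in 96-well plates were exposed to five compound concentrations for 48 h, and endpoints were estimated by linear interpolation. Here, GI50 denotes the concentration required for 50% inhibition of growth. TGI: concentration producing complete growth inhibition.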

Assays:
Assay in all cases: NCI anticancer screen, dose series, 48 h
[1] = test system: PC-3 prostate
[2] = test system: HOP-92 NSCLC
[3] = test system: KM12 colon
[4] = test system: RPMI-8226 leukemia
[5] = test system: EKVX NSCLC
[6] = test system: LOX IMVI melanoma
[7] = test system: UACC-257 melanoma
[8] = test system: NCI-H23 lung
[9] = test system: CCRF-CEM leukemia
[10] = test system: HOP-62 NSCLC

SMILES: CN(CC(=O)N(Cc1ccc(C2CCCCC2)cc1)c1ccc(C(=O)O)c(O)c1)S(=O)(=O)c1c(F)c(F)c(F)c(F)c1F
- GI50 [1]: 12.2 µM
- TGI [1]: 27.7 µM
- GI50 [2]: 1.95 µM
- TGI [2]: 8.91 µM
- GI50 [3]: 19 µM
- TGI [3]: 33.7 µM
- GI50 [4]: 2.28 µM
- TGI [4]: 6.37 µM
- GI50 [5]: 15.7 µM
- TGI [5]: 29.8 µM
- GI50 [6]: 1.6 µM
- TGI [6]: 3.01 µM
- GI50 [7]: 3.93 µM
- TGI [7]: 8.53 µM
- GI50 [8]: 10.6 µM
- TGI [8]: 26.9 µM
- GI50 [9]: 1.84 µM
- TGI [9]: 4.69 µM
- GI50 [10]: 13.4 µM
- TGI [10]: 30.4 µM

SMILES: CCCCCCCCCc1cccc(N2C(N)=NC(N)=NC2(C)C)c1
- TGI [1]: > 35.7 µM
- TGI [2]: > 100 µM
- TGI [4]: > 100 µM
- TGI [5]: 10.5 µM
- TGI [7]: 2.13 µM
- TGI [8]: 0.277 µM
- TGI [9]: > 100 µM
- TGI [10]: 1.24 µM

SMILES: COc1ccc(Cn2cc3c(c2-c2ccc(OC)cc2)CCc2cnoc2-3)cc1
- GI50 [1]: 0.602 µM
- TGI [1]: > 100 µM
- GI50 [2]: 1.12 µM
- TGI [2]: > 100 µM
- GI50 [3]: 0.376 µM
- TGI [3]: 2.35 µM
- GI50 [4]: 0.336 µM
- GI50 [5]: 0.523 µM
- TGI [5]: > 100 µM
- GI50 [6]: 0.706 µM
- TGI [6]: > 100 µM
- GI50 [7]: 1.57 µM
- TGI [7]: > 100 µM
- GI50 [8]: 0.519 µM
- TGI [8]: > 100 µM
- GI50 [9]: 0.364 µM
- TGI [9]: > 100 µM
- GI50 [10]: 0.539 µM
- TGI [10]: > 100 µM

SMILES: CCOC(=O)C(=Cc1ccc(Oc2ccccc2)cc1)C(=O)OCC
- TGI [1]: 6.12 µM
- TGI [2]: 16.2 µM
- TGI [3]: 19 µM
- TGI [4]: 6.89 µM
- TGI [5]: 29.4 µM
- TGI [6]: 3.22 µM
- TGI [7]: 6.63 µM
- TGI [8]: 6.93 µM
- TGI [9]: 6.75 µM
- TGI [10]: 11.2 µM

SMILES: CC[C@@H](C(=O)[C@@H](C)[C@@H](O)[C@H](C)[C@@H]1O[C@@H]([C@@H](CC)C(=O)N(CC)CC)CC[C@@H]1C)C1O[C@]2(C=CC(=O)[C@]3(CC[C@@](C)([C@H]4CC[C@](O)(CC)[C@H](C)O4)O3)O2)[C@H](C)C[C@@H]1C (stereo partly specified)
- GI50 [1]: 2.6 µM
- TGI [1]: 24.7 µM
- GI50 [2]: 1.35 µM
- TGI [2]: 4.6 µM
- GI50 [3]: 1.82 µM
- TGI [3]: 3.68 µM
- GI50 [4]: 2.12 µM
- TGI [4]: 6.42 µM
- GI50 [5]: 2.75 µM
- TGI [5]: 18.6 µM
- GI50 [6]: 1.58 µM
- TGI [6]: 3.17 µM
- GI50 [7]: 3.17 µM
- TGI [7]: 19.9 µM
- GI50 [8]: 2.4 µM
- TGI [8]: 6.91 µM
- GI50 [9]: 3.01 µM
- TGI [9]: 14.4 µM
- GI50 [10]: 3.75 µM
- TGI [10]: 20.1 µM

SMILES: C[C@@H](CO)[C@@H]1CCC=C2CC[C@]3(C)[C@H](CC[C@@H]4[C@@]5(C)CCCNC(C)(C)[C@@H]5CC[C@]43C)[C@H]21
- GI50 [1]: 2.97 µM
- TGI [1]: 13.4 µM
- GI50 [2]: 1.87 µM
- TGI [2]: 8.71 µM
- GI50 [3]: 1.97 µM
- TGI [3]: 4.09 µM
- GI50 [5]: 4.18 µM
- TGI [5]: 17.3 µM
- GI50 [6]: 1.74 µM
- TGI [6]: 3.17 µM
- GI50 [7]: 2.59 µM
- TGI [7]: 7.08 µM
- GI50 [8]: 3.94 µM
- TGI [8]: 14.3 µM
- GI50 [9]: 3.08 µM
- TGI [9]: 13.9 µM
- GI50 [10]: 2.08 µM
- TGI [10]: 4.21 µM

SMILES: COC(=O)C1=C(C)NC(C)=C(C(=O)OC)C1/C=C(Cl)/C=C/c1ccccc1
- GI50 [1]: 18.2 µM
- TGI [1]: 38.3 µM
- GI50 [3]: 18.4 µM
- TGI [3]: 39.5 µM
- GI50 [4]: 32.2 µM
- TGI [4]: > 100 µM
- GI50 [5]: 23.5 µM
- TGI [5]: 96.4 µM
- GI50 [6]: 15.1 µM
- TGI [6]: 28.8 µM
- GI50 [7]: 16.8 µM
- TGI [7]: 41 µM
- GI50 [8]: 21.3 µM
- TGI [8]: 41.6 µM
- GI50 [9]: 29.6 µM
- TGI [9]: 60 µM
- GI50 [10]: 20.1 µM
- TGI [10]: 38.5 µM

SMILES: O=C(/C=C/c1cc([N+](=O)[O-])ccc1Cl)c1ccccc1
- GI50 [1]: 24.5 µM
- TGI [1]: 82.9 µM
- GI50 [3]: 1.8 µM
- TGI [3]: 3.59 µM
- GI50 [4]: 3.68 µM
- TGI [4]: 14.6 µM
- GI50 [5]: 13 µM
- TGI [5]: 43.2 µM
- GI50 [6]: 2.6 µM
- TGI [6]: 6.79 µM
- GI50 [7]: 16.2 µM
- TGI [7]: 33.6 µM
- GI50 [8]: 15.6 µM
- TGI [8]: 36.2 µM
- GI50 [9]: 26.9 µM
- TGI [9]: > 100 µM
- GI50 [10]: 25 µM
- TGI [10]: 63.5 µM

SMILES: COc1cc2c3c(n(CCCI)c(=O)c2cc1OC)-c1cc2c(cc1C3=O)OCO2
- GI50 [1]: > 100 µM
- TGI [1]: > 100 µM
- GI50 [2]: > 100 µM
- TGI [2]: > 100 µM
- GI50 [3]: 7.4 µM
- TGI [3]: > 100 µM
- GI50 [4]: 3.76 µM
- TGI [4]: > 100 µM
- GI50 [7]: 3.77 µM
- TGI [7]: 49.4 µM
- GI50 [8]: 7.24 µM
- TGI [8]: > 100 µM
- GI50 [9]: 0.873 µM
- TGI [9]: > 100 µM
- GI50 [10]: 4.45 µM
- TGI [10]: > 100 µM

SMILES: N#Cc1c(N)nc(N2CCOCC2)c(C#N)c1-c1cccnc1
- GI50 [1]: 33.5 µM
- TGI [1]: > 100 µM
- GI50 [2]: 24.8 µM
- TGI [2]: > 100 µM
- GI50 [3]: > 100 µM
- TGI [3]: > 100 µM
- GI50 [4]: 45.5 µM
- TGI [4]: > 100 µM
- GI50 [5]: 83.8 µM
- TGI [5]: > 100 µM
- GI50 [6]: 63.1 µM
- TGI [6]: > 100 µM
- GI50 [7]: 93.1 µM
- TGI [7]: > 100 µM
- GI50 [9]: 39.3 µM
- TGI [9]: > 100 µM
- GI50 [10]: 24.9 µM
- TGI [10]: > 100 µM

SMILES: CCC1CCc2nc3sc(C(=O)Nc4cccc(F)c4)c(N)c3cc2C1 (stereo unspecified)
- GI50 [1]: > 100 µM
- TGI [1]: > 100 µM
- GI50 [2]: > 100 µM
- TGI [2]: > 100 µM
- GI50 [4]: > 100 µM
- TGI [4]: > 100 µM
- GI50 [6]: > 100 µM
- TGI [6]: > 100 µM
- GI50 [7]: > 100 µM
- TGI [7]: > 100 µM
- GI50 [8]: > 100 µM
- TGI [8]: > 100 µM
- GI50 [9]: 1.79 µM
- TGI [9]: > 100 µM
- GI50 [10]: > 100 µM
- TGI [10]: > 100 µM

SMILES: CC(C)CCN=C(N)c1ccc(N2CCN(c3ccc(C(N)=NCCC(C)C)cc3)CC2)cc1
- GI50 [1]: 11.4 µM
- TGI [1]: 43.4 µM
- GI50 [2]: 3.86 µM
- TGI [2]: 24.3 µM
- GI50 [3]: 3.82 µM
- TGI [3]: 16.6 µM
- GI50 [5]: 1 µM
- TGI [5]: 10.4 µM
- GI50 [6]: 21.2 µM
- TGI [6]: 57.3 µM
- GI50 [7]: 12.9 µM
- TGI [7]: 82.3 µM
- GI50 [8]: 3.75 µM
- TGI [8]: 17.8 µM
- GI50 [9]: 6.37 µM
- TGI [9]: 26.4 µM
- GI50 [10]: 10.4 µM
- TGI [10]: 26.9 µM

SMILES: Cn1ccnc1C(=O)/C=C/c1ccccc1
- GI50 [1]: 12.5 µM
- TGI [1]: 37.4 µM
- GI50 [3]: 3.06 µM
- TGI [3]: 12.5 µM
- GI50 [4]: 2.91 µM
- TGI [4]: 8.97 µM
- GI50 [5]: 11.6 µM
- TGI [5]: 25.1 µM
- GI50 [6]: 2.99 µM
- TGI [6]: 14.3 µM
- GI50 [7]: 4.07 µM
- TGI [7]: 16.2 µM
- GI50 [8]: 3.76 µM
- TGI [8]: 25.4 µM
- GI50 [9]: 2.7 µM
- TGI [9]: 7.17 µM
- GI50 [10]: 4.44 µM
- TGI [10]: 14.4 µM

SMILES: COc1cc(COC(=O)N(CC(=O)O)c2ccccc2)c([N+](=O)[O-])cc1OC
- TGI [1]: > 100 µM
- TGI [2]: > 100 µM
- TGI [3]: > 100 µM
- TGI [4]: > 100 µM
- TGI [5]: > 100 µM
- TGI [7]: > 100 µM
- TGI [8]: > 100 µM
- TGI [9]: > 100 µM
- TGI [10]: > 100 µM
